Measured values as given in patent publication US4749717A, “Dopamine-beta-hydroxylase inhibitors” (SmithKline Beckman Corporation, priority 1987, dated 1988).

Key:
[1] = test system: spontaneously hypertensive rats; experiment: mean arterial blood pressure in spontaneously hypertensive rats; assay type: in vivo, rat; conditions: 50 mg/kg intraperitoneally
Procedure: Further, spontaneously hypertensive rats were treated with a suspension or solution of 1-(2-thienylmethyl)imidazole-2-thiol at a dose of 50 mg/kg intraperitoneally, and mean arterial blood pressure was monitored for 260 minutes using indwelling cannulae in the tail arteries. […] The maximal blood pressure reduction was approximately 25 to 30 mmHg.

[2] = molecular target: T1, DBH (dopamine-β-hydroxylase) (Bos taurus, UniProt P15101); experiment: in vitro DBH inhibition (conversion of tyramine to octopamine; spectrophotometric absorbance at 330 nm); assay type: biochemical; conditions: concentration of compound at which DBH activity was halved
T1 sequence (P15101 1-610): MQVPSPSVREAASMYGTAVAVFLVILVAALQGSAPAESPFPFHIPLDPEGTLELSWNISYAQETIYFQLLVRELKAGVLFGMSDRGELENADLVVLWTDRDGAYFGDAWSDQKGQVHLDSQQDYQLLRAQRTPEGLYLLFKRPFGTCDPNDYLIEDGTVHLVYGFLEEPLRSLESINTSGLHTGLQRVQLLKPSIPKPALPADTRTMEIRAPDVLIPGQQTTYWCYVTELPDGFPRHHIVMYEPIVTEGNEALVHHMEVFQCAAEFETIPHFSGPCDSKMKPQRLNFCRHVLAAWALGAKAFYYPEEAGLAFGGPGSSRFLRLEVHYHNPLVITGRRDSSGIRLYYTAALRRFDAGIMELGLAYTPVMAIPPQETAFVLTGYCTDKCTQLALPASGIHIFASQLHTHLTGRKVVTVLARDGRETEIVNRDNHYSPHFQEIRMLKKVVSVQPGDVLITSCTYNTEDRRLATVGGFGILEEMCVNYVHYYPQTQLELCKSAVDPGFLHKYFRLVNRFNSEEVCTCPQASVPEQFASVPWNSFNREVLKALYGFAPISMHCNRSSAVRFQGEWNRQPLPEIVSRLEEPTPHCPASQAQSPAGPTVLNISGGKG
Procedure: Listed in Table I are the compounds of the invention that were tested for in vitro DBH inhibition by a standard procedure for assaying conversion of tyramine to octopamine in the presence of DBH. J. J. Pisano, et al., Biochim. Biophys. Acta, 43, 566-568 (1960). Octopamine was assayed following sodium periodate oxidation to p-hydroxybenzaldehyde by measuring spectrophotometric absorbance at 330 nm.

[3] = molecular target: T2, DBH (dopamine-β-hydroxylase) (Homo sapiens, UniProt P09172); conditions: literature; cited from earlier work
T2 sequence (P09172 1-617): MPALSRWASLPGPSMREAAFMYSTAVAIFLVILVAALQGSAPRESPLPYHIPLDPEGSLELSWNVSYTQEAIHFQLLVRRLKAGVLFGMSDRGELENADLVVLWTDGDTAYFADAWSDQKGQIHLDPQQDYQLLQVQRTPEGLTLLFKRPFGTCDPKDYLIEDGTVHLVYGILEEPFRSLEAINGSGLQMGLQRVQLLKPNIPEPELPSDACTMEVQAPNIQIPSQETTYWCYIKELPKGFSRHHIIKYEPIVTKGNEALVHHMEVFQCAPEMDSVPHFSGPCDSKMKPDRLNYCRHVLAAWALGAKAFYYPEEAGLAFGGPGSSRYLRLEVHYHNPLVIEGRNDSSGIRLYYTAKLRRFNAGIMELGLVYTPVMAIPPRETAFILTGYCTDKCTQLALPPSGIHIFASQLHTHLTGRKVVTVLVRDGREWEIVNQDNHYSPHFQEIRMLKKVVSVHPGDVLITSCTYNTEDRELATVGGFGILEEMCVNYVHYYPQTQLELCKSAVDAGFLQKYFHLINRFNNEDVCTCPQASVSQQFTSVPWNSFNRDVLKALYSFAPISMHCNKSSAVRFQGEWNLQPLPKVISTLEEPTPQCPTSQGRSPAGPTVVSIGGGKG

[4] = Ehrreich et al.; cited from earlier work
[5] = Teresawa et al.; cited from earlier work

Structure (SMILES)	DBH inhibition (in words) [3]	further results
Sc1nccn1Cc1cccs1 [1-(2-thienylmethyl)imidazole-2-thiol, 1-(2-Thienylmethyl)Imidazole-2-Thiol]	–	time after treatment to significant blood pressure reductions [1]: ≤ 60 min; maximal blood pressure reduction ([1]; mean arterial blood pressure, approximately): 25 to 30 mmHg; blood pressure reduction compared to vehicle-treated controls ([1]; monitored for 260 minutes): significant blood pressure reductions; IC50 [2]: 13 µM
Sc1nccn1Cc1ccsc1 [1-(3-thienylmethyl)imidazole-2-thiol, 1-(3-Thienylmethyl)imidazole-2-thiol]	–	IC50 [2]: 7.4 µM
NCC=Cc1cccs1 [3-(2-thienyl)allylamine]	potent, time-dependent DBH inhibitors	–
O=C(O)c1ccc(CCC(Br)CBr)cn1 (centres unmarked) [5-(3,4-dibromobutyl)picolinic acid]	DBH inhibitors	–
O=C(O)c1ccc(CCCCCl)cn1 [5-(4-chlorobutyl) picolinic acid]	inhibit DBH	–
CN(C)C(=S)SCc1ccc(C(=O)O)nc1 [5-(dimethyldithiocarbamoylmethyl)picolinic acid]	DBH inhibitors	–
NOCc1ccccc1 [Benzyloxyamine, benzyloxyamine]	apparently act as competitive inhibitors	–
CCCCc1ccc(C(N)=O)nc1 [Bupicomide, 5-(n-butyl)picolinamine]	DBH inhibitor	antihypertensive activity (in words) [4]: has antihypertensive activity
NNCc1ccccc1 [benzylhydrazine]	apparently act as competitive inhibitors	–
CCCCc1ccc(C(=O)O)nc1 [fusaric acid]	–	hepatotoxicity (in words) [5]: hepatotoxic
